Measured values: ChEMBL document CHEMBL1201862, “PubChem BioAssay data set” (2004)
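Protocol summary: plate cells (96-well), add compound at 5 concentrations, incubate 48 h, interpolate endpoints linearly. Abbreviation: GI50, concentration required for 50% inhibition of growth.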 Activity calls are given as the source filed them. Rule as the data show it: active = GI50 up to about 1.1 µM and inactive = higher.

Tests used:
Experiment in all cases: inhibition of tumour cell growth, NCI panel, 48 h
786-0 = system: 786-0
A498 = system: A498
A549 = system: A549
ACHN = system: ACHN
BT-549 = system: BT-549
CAKI-1 = system: CAKI-1
CCRF-CEM = system: CCRF-CEM
COLO 205 = system: COLO 205
DU-145 = system: DU-145
EKVX = system: EKVX
HCC 2998 = system: HCC 2998
HCT-116 = system: HCT-116
HCT-15 = system: HCT-15
HL-60 = system: HL-60
HOP-92 = system: HOP-92
HT-29 = system: HT-29
Hs-578T = system: Hs-578T
IGROV-1 = system: IGROV-1
K562 = system: K562
KM12 = system: KM12
LOX IMVI = system: LOX IMVI
M14 = system: M14
MCF7 = system: MCF7
MDA-MB-231 = system: MDA-MB-231
MDA-MB-435 = system: MDA-MB-435
MDA-N = system: MDA-N
MOLT-4 = system: MOLT-4
NCI-H226 = system: NCI-H226
NCI-H23 = system: NCI-H23
NCI-H460 = system: NCI-H460
NCI-H522 = system: NCI-H522
NCI/ADR-RES = system: NCI/ADR-RES
OVCAR-3 = system: OVCAR-3
OVCAR-4 = system: OVCAR-4
OVCAR-5 = system: OVCAR-5
OVCAR-8 = system: OVCAR-8
PC-3 = system: PC-3
RPMI-8226 = system: RPMI-8226
SF-268 = system: SF-268
SF-295 = system: SF-295
SF-539 = system: SF-539
SK-MEL-28 = system: SK-MEL-28
SK-MEL-2 = system: SK-MEL-2
SK-MEL-5 = system: SK-MEL-5
SK-OV-3 = system: SK-OV-3
SN12C = system: SN12C
SNB-19 = system: SNB-19
SNB-75 = system: SNB-75
SW-620 = system: SW-620
T47D = system: T47D
TK-10 = system: TK-10
U-251 = system: U-251
UACC-257 = system: UACC-257
UACC-62 = system: UACC-62
UO-31 = system: UO-31
HOP-62 = system: HOP-62
Malme-3M = system: Malme-3M
RXF 393 = system: RXF 393

## O=c1cccc(C2CC(CO)C3CCCCN3C2)[nH]1 (stereo not given)
786-0
  GI50: > 100 µM (inactive)
A498
  GI50: > 100 µM (inactive)
A549
  GI50: > 100 µM (inactive)
ACHN
  GI50: > 100 µM (inactive)
BT-549
  GI50: > 100 µM (inactive)
CAKI-1
  GI50: > 100 µM (inactive)
CCRF-CEM
  GI50: > 100 µM (inactive)
COLO 205
  GI50: > 100 µM (inactive)
DU-145
  GI50: > 100 µM (inactive)
EKVX
  GI50: > 100 µM (inactive)
HCC 2998
  GI50: > 100 µM (inactive)
HCT-116
  GI50: > 100 µM (inactive)
HCT-15
  GI50: > 100 µM
HL-60
  GI50: > 100 µM (inactive)
HOP-92
  GI50: > 100 µM (inactive)
HT-29
  GI50: > 100 µM (inactive)
Hs-578T
  GI50: > 100 µM (inactive)
IGROV-1
  GI50: > 100 µM (inactive)
K562
  GI50: > 100 µM (inactive)
KM12
  GI50: > 100 µM (inactive)
LOX IMVI
  GI50: > 100 µM (inactive)
M14
  GI50: > 100 µM (inactive)
MCF7
  GI50: > 100 µM (inactive)
MDA-MB-231
  GI50: > 100 µM (inactive)
MDA-MB-435
  GI50: > 100 µM (inactive)
MDA-N
  GI50: > 100 µM (inactive)
MOLT-4
  GI50: > 100 µM (inactive)
NCI-H226
  GI50: > 100 µM (inactive)
NCI-H23
  GI50: > 100 µM (inactive)
NCI-H460
  GI50: > 100 µM (inactive)
NCI-H522
  GI50: > 100 µM (inactive)
NCI/ADR-RES
  GI50: > 100 µM (inactive)
OVCAR-3
  GI50: > 100 µM (inactive)
OVCAR-4
  GI50: > 100 µM (inactive)
OVCAR-5
  GI50: > 100 µM (inactive)
OVCAR-8
  GI50: > 100 µM (inactive)
PC-3
  GI50: > 100 µM (inactive)
RPMI-8226
  GI50: > 100 µM (inactive)
SF-268
  GI50: > 100 µM (inactive)
SF-295
  GI50: > 100 µM (inactive)
SF-539
  GI50: > 100 µM (inactive)
SK-MEL-28
  GI50: > 100 µM (inactive)
SK-MEL-2
  GI50: > 100 µM (inactive)
SK-MEL-5
  GI50: > 100 µM (inactive)
SK-OV-3
  GI50: > 100 µM (inactive)
SN12C
  GI50: > 100 µM (inactive)
SNB-19
  GI50: > 100 µM (inactive)
SNB-75
  GI50: 86.9 µM (inactive)
SW-620
  GI50: > 100 µM (inactive)
T47D
  GI50: > 100 µM (inactive)
TK-10
  GI50: > 100 µM (inactive)
U-251
  GI50: > 100 µM (inactive)
UACC-257
  GI50: > 100 µM (inactive)
UACC-62
  GI50: > 100 µM (inactive)
UO-31
  GI50: > 100 µM (inactive)

## COc1ccc(C2NC3=C(CCCC3)C3(C#N)C(=O)N=C(N)C23C#N)cc1 (stereo not given)
786-0
  GI50: > 100 µM (inactive)
A498
  GI50: > 100 µM (inactive)
A549
  GI50: > 100 µM (inactive)
ACHN
  GI50: > 100 µM (inactive)
BT-549
  GI50: > 100 µM (inactive)
CAKI-1
  GI50: > 100 µM (inactive)
CCRF-CEM
  GI50: 23 µM (inactive)
COLO 205
  GI50: > 100 µM (inactive)
DU-145
  GI50: > 100 µM (inactive)
EKVX
  GI50: > 100 µM (inactive)
HCC 2998
  GI50: > 100 µM (inactive)
HCT-116
  GI50: > 100 µM (inactive)
HCT-15
  GI50: > 100 µM
HL-60
  GI50: > 100 µM (inactive)
HOP-62
  GI50: > 100 µM (inactive)
HOP-92
  GI50: > 100 µM (inactive)
HT-29
  GI50: > 100 µM (inactive)
Hs-578T
  GI50: > 100 µM (inactive)
IGROV-1
  GI50: > 100 µM (inactive)
K562
  GI50: > 100 µM (inactive)
KM12
  GI50: > 100 µM (inactive)
LOX IMVI
  GI50: > 100 µM (inactive)
M14
  GI50: > 100 µM (inactive)
MCF7
  GI50: > 100 µM (inactive)
MDA-MB-231
  GI50: > 100 µM (inactive)
MDA-MB-435
  GI50: > 100 µM (inactive)
MDA-N
  GI50: > 100 µM (inactive)
MOLT-4
  GI50: > 100 µM (inactive)
Malme-3M
  GI50: > 100 µM (inactive)
NCI-H226
  GI50: > 100 µM (inactive)
NCI-H23
  GI50: > 100 µM (inactive)
NCI-H460
  GI50: > 100 µM (inactive)
NCI-H522
  GI50: > 100 µM (inactive)
NCI/ADR-RES
  GI50: > 100 µM (inactive)
OVCAR-4
  GI50: > 100 µM (inactive)
OVCAR-5
  GI50: > 100 µM (inactive)
OVCAR-8
  GI50: > 100 µM (inactive)
PC-3
  GI50: > 100 µM (inactive)
RPMI-8226
  GI50: > 100 µM (inactive)
RXF 393
  GI50: > 100 µM (inactive)
SF-268
  GI50: > 100 µM (inactive)
SF-295
  GI50: > 100 µM (inactive)
SK-MEL-28
  GI50: > 100 µM (inactive)
SK-MEL-2
  GI50: > 100 µM (inactive)
SK-MEL-5
  GI50: > 100 µM (inactive)
SK-OV-3
  GI50: > 100 µM (inactive)
SN12C
  GI50: > 100 µM (inactive)
SNB-19
  GI50: > 100 µM (inactive)
SW-620
  GI50: > 100 µM (inactive)
T47D
  GI50: > 100 µM (inactive)
TK-10
  GI50: > 100 µM (inactive)
U-251
  GI50: > 100 µM (inactive)
UACC-257
  GI50: > 100 µM (inactive)
UACC-62
  GI50: > 100 µM (inactive)
UO-31
  GI50: > 100 µM (inactive)
